Experimental data as given in patent US20020025940A1, “Methods and compositions for sensitive and rapid, functional identification of genomic polynucleotides and use for cellular assays in drug discovery” (Aurora Biosciences Corporation, priority 1997, published 2002).

Experiments:
[1] = tested on: induced BLEC Jurkat clones; test: Characterization of induced BLEC Jurkat clones, change in 460/530 ratio; type: cell-based, human; conditions: PHA 10 microgram/ml, Thaps 1 microM, PMA 8 nM, Anti-CD3 2 microgram/ml
From the text: These clones represent cells in which the trapping construct had integrated into a gene up regulated by PHA (T-cell) activation. Thus, these cells report the transcriptional activation of a gene upon cellular activation. Individual clones were identified and isolated by FACS using CCF2/AM to detect beta-lactamase activity. This clone isolation method, the induced sorting paradigm, used three sequential and independent stimulation and sorting protocols. […] These control cells were all green.
These isolated clones were expanded and tested for PHA inducibility by microscopic inspection with and without PHA stimulation in the presence of CCF2/AM. A total of fifty-five PHA inducible clones were identified using this procedure. The PHA inducibility for these clones ranged from a 1.5 to 40 fold change in the 460/530 ratio as compared to unstimulated control cells. Genomic Southern analysis using a DNA probe encoding beta-lactamase established that these clones represented 34 independent stable vector integration events. A list of clones obtained by the methods of the present invention and their characteristics is provided below in Table 6 and Table 7.
In addition to PHA inducible clones, Phobol 12-myristate 13-acetate (PMA) (Calbiochem), Thapsigargin (Thaps) (Calbiochem), and PMA+Thaps inducible clones were isolated using the general procedure set forth above using the indicated inducer rather than PHA. PMA is a specific activator of PKC (protein kinase C) and Thaps is a specific activator of intracellular calcium ion release (Thaps). These clones were isolated using three rounds of FACS using the general procedures described for the PHA inducible clones in Example 5. In such instances, other stimulants were substituted for PHA. PMA was provided at 8 nM, Thaps was provided at 1 microM. When these two stimulants were combined, their concentration was not changed. […] By using varied selection conditions, it is possible to isolate functionally distinct clones downstream of the desired signaling target.
Table 7 and Table 8 provide data similar to that provided in Table 5 for all of the clones obtained by the methods of Examples 5 to 7.

J389PT14/pcDNA3 = test: Beta-lactamase expression in control cell line J389PTI4/pcDNA3; type: cell-based, human; conditions: 30 μM Carbachol, 10 nM PHA, 6 hours, unstimulated = 1
Method: (§1) For example, a calcium-sensitive clone was transfected with a Gq-type GPCR by electroporation. Cells from clone J389PT14 were transfected by electroporation with a plasmid (pcDNA3 (Invitrogen) or pcDNA3-M1 (pcDNA3 that can operably express M1 receptor) to make cell lines J389PTI4/pcDNA3 and J389PTI4/pcDNA3-Ml). […] Thus, the J389PTI4/pcDNA3 cell is a control cell. […] These cells were contacted with CCF-2 dye for another 90 minutes. The 460/530 ratio changes were measured in a Cytoflour (Series 4000 Model) (Perceptive Biosystems) fluorescence plate reader and correspond to reporter gene expression.

BLEC Jurkat clones = test: Specificity of activated BLEC Jurkat clones, relative beta-lactamase activity; type: cell-based, human; conditions: PMA 8 nM, Thaps 1 microM, CsA 100 nM, PHA 10 microgram/ml
From the text: (§2) Isolated clones from PHA-induced (Example 6) and PHA-repressed (Example 7) procedures described above were characterized to determine the specificity of their modulation and time required for induction or repression. Clones were stimulated with multiple activators or inhibitors over a one to twenty-four hour time interval.
(§3) In this study, PMA, which is a PKC activator, Thapsigargin which increases intracellular calcium, PHA which activates the T-cell receptor pathway, and cyclosporin A which is a clinically approved immunosuppressant that inhibits the Ca^2+ dependent phosphates calcineurin were investigated for their ability to modulate beta-lactamase expression in PHA induced and repressed BLEC clones.

M1 receptor = target: T1, M1 receptor (Homo sapiens, UniProt P11229); type: cell-based; conditions: cell line J389PT14/pcDNA3-M1; 30 μM Carbachol, 10 nM PHA; 6 hours; unstimulated = 1
T1 construct: expressed in transfected cells; host or cells: Jurkat-derived BLEC clone J389PT14, transiently transfected by electroporation with pcDNA3-M1
T1 sequence (P11229 whole entry): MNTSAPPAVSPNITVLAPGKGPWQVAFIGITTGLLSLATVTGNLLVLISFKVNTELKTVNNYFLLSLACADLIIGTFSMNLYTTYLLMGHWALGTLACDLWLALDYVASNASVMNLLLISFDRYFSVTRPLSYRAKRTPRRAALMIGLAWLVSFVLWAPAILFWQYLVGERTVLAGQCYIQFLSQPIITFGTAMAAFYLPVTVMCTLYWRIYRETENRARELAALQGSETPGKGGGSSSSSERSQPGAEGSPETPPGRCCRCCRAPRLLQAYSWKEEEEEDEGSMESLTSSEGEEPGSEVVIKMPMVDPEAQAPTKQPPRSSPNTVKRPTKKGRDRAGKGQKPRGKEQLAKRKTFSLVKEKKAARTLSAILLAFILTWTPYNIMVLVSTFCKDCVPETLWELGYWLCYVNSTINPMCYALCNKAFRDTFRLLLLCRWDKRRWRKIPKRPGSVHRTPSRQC
Method: as §1

[2] = tested on: clone C2 (3×NFAT response element linked to beta-lactamase, M1 muscurinic receptor); test: Relative beta-lactamase activity of control clone C2; type: cell-based, human; conditions: PMA 8 nM, Thaps 1 microM, CsA 100 nM, PHA 10 microgram/ml
From the text: as §2, §3

Substance: phytohemaglutinin [PHA]
- Change in 460/530 ratio in the indicated clone by the following activator ([1]; clone J83PI1): 3-4
- Change in 460/530 ratio in the indicated clone by the following activator ([1]; clone J83PI2): 8
- Change in 460/530 ratio in the indicated clone by the following activator ([1]; clone J83PI3): 5-6
- Change in 460/530 ratio in the indicated clone by the following activator ([1]; clone J83PI4): 34
- Change in 460/530 ratio in the indicated clone by the following activator ([1]; clone J83PI6): 6-7
- Change in 460/530 ratio in the indicated clone by the following activator ([1]; clone J83PI7): 2
- Change in 460/530 ratio in the indicated clone by the following activator ([1]; clone J83PI8): 4-5
- Change in 460/530 ratio in the indicated clone by the following activator ([1]; clone J83PI9): 6
- Change in 460/530 ratio in the indicated clone by the following activator ([1]; clone J83PI13): 2-3
- Change in 460/530 ratio in the indicated clone by the following activator ([1]; clone J83PI14): 2
- Change in 460/530 ratio in the indicated clone by the following activator ([1]; clone J83PI15): 3-4
- Change in 460/530 ratio in the indicated clone by the following activator ([1]; clone J83PI16): 3-4
- Change in 460/530 ratio in the indicated clone by the following activator ([1]; clone J83PI18): 5-6
- Change in 460/530 ratio in the indicated clone by the following activator ([1]; clone J83PI19): 5-6
- Change in 460/530 ratio in the indicated clone by the following activator ([1]; clone J97PI1): 3-4
- Change in 460/530 ratio in the indicated clone by the following activator ([1]; clone J97PI2): 2-3
- Change in 460/530 ratio in the indicated clone by the following activator ([1]; clone J97PI3): 1-2
- Change in 460/530 ratio in the indicated clone by the following activator ([1]; clone J97PI4): 1-2
- Change in 460/530 ratio in the indicated clone by the following activator ([1]; clone J97PI6): 3-4
- Change in 460/530 ratio in the indicated clone by the following activator ([1]; clone J97PI7): 3-4
- Change in 460/530 ratio in the indicated clone by the following activator ([1]; clone J97PI8): 2.5-3
- Change in 460/530 ratio in the indicated clone by the following activator ([1]; clone J97PI9): 2-3
- Change in 460/530 ratio in the indicated clone by the following activator ([1]; clone J97PI10): 3-4
- Change in 460/530 ratio in the indicated clone by the following activator ([1]; clone J97PI11): 3-4
- Change in 460/530 ratio in the indicated clone by the following activator ([1]; clone J97PI12): 3-4
- Change in 460/530 ratio in the indicated clone by the following activator ([1]; clone J97PI13): 2-3
- Change in 460/530 ratio in the indicated clone by the following activator ([1]; clone J97PI14): 4-5
- Change in 460/530 ratio in the indicated clone by the following activator ([1]; clone J97PI15): 1-2
- Change in 460/530 ratio in the indicated clone by the following activator ([1]; clone J97PI17): 4-5
- Change in 460/530 ratio in the indicated clone by the following activator ([1]; clone J97PI18): 1-2
- Change in 460/530 ratio in the indicated clone by the following activator ([1]; clone J97PI19): 2-3
- Change in 460/530 ratio in the indicated clone by the following activator ([1]; clone J97PI20): 1-2
- Change in 460/530 ratio in the indicated clone by the following activator ([1]; clone J97PI21): 2-3
- Change in 460/530 ratio in the indicated clone by the following activator ([1]; clone J97PI22): 5-6
- Change in 460/530 ratio in the indicated clone by the following activator ([1]; clone J97PI23): 4-5
- Change in 460/530 ratio in the indicated clone by the following activator ([1]; clone J97PI24): 3-4
- Change in 460/530 ratio in the indicated clone by the following activator ([1]; clone J97PI116): 2-3
- Change in 460/530 ratio in the indicated clone by the following activator ([1]; clone J325B5): 7
- Change in 460/530 ratio in the indicated clone by the following activator ([1]; clone J325B11): 9
- Change in 460/530 ratio in the indicated clone by the following activator ([1]; clone J325E1): 8
- Change in 460/530 ratio in the indicated clone by the following activator ([1]; clone J325E3): 7
- Change in 460/530 ratio in the indicated clone by the following activator ([1]; clone J325E6): 11
- Change in 460/530 ratio in the indicated clone by the following activator ([1]; clone J325G4): 3-4
- Change in 460/530 ratio in the indicated clone by the following activator ([1]; clone J326C9): 4-5
- Change in 460/530 ratio in the indicated clone by the following activator ([1]; clone J326D4): 10
- Change in 460/530 ratio in the indicated clone by the following activator ([1]; clone J326D7): 10
- Change in 460/530 ratio in the indicated clone by the following activator ([1]; clone J326F7): 10
- Change in 460/530 ratio in the indicated clone by the following activator ([1]; clone J326H4): 10
- Change in 460/530 ratio in the indicated clone by the following activator ([1]; clone J389PM2): 4-5
- Change in 460/530 ratio in the indicated clone by the following activator ([1]; clone J389PM3): 3
- Change in 460/530 ratio in the indicated clone by the following activator ([1]; clone J389PM5): 4-5
- Change in 460/530 ratio in the indicated clone by the following activator ([1]; clone J389PM7): 1-2
- Change in 460/530 ratio in the indicated clone by the following activator ([1]; clone J389PM8): 2-3
- Change in 460/530 ratio in the indicated clone by the following activator ([1]; clone J389PT4): 15
- Change in 460/530 ratio in the indicated clone by the following activator ([1]; clone J389PTt): 5-6
- Change in 460/530 ratio in the indicated clone by the following activator ([1]; clone J389TI1): 1-2
- Change in 460/530 ratio in the indicated clone by the following activator ([1]; clone J389TI4): 0
- Relative expression of beta-lactamase in cells exposed to the indicated stimuli (J389PT14/pcDNA3): 12
- Relative Beta-Lactamase Activity of the Clone by the Indicated Stimulus After 24 hours (% of maximum activated stimuli) (BLEC Jurkat clones; clone J32-6D4): 80%
- Relative Beta-Lactamase Activity of the Clone by the Indicated Stimulus After 24 hours (% of maximum activated stimuli) (BLEC Jurkat clones; clone J83 97-PPTR2 (repressed paradigm)): 67%
- Relative Beta-Lactamase Activity of the Clone by the Indicated Stimulus After 24 hours (% of maximum activated stimuli) (BLEC Jurkat clones; clone J83-PI9): 60%
- Relative Beta-Lactamase Activity of the Clone by the Indicated Stimulus After 24 hours (% of maximum activated stimuli) (BLEC Jurkat clones; clone J83-PTI8): 60%
- Relative Beta-Lactamase Activity of the Clone by the Indicated Stimulus After 24 hours (% of maximum activated stimuli) (BLEC Jurkat clones; clone J389-PTI4): 85%
- Relative expression of beta-lactamase in cells exposed to the indicated stimuli (M1 receptor): 13
- Relative Beta-Lactamase Activity of the Clone by the Indicated Stimulus After 24 hours (% of maximum activated stimuli) [2]: 30%
